Test results as given in patent US20130274212A1, “Sesterterpene Compounds and Use Thereof” (SNU R&DB FOUNDATION, priority 2010, published 2013).
pEC50, pIC50: −log10 of the molar value.

Columns and labels:
[1] = test system: LXR; assay: GAL-hLXRa or GAL-hLXRB luciferase reporter antagonist assay in CV-1 cells; format: cell-based, human; details: LXR agonist T0901517 500 nM
Description: (§1) Animal cell line CV-1 was used in transfection search. Cells were cultured in DMEM medium within a cell incubator containing 5% carbon dioxide at 37° C. The medium contained 10% fetal bovine serum (FBS), 100 U/ml penicillin, and 100 μg/ml streptomycin. On day 1 of the experiment, CV1 cells were seeded in a 96-well plate at 5,000 cells/well. On day 2, the seeded cells were transfected with plasmid expressing GAL-hLXRa or GAL-hLXRB, plasmid expressing luciferase gene, and plasmid expressing β-galactosidase, by using a transfection reagent, Superfect (QIAGEN). After 16 hours, the transfected cells were treated with compounds of Chemical Formula I dissolved in dimethylsulfoxide (DMSO) by the concentrations (here, the final concentration of the LXR agonist, T0901517, was 500 nM). Cells treated with dimethylsulfoxide having the final concentration of 1% were used as a negative control group. After culturing for 24 hours, the cells were lysed by using a lysis buffer, and luciferin was added thereto to measure the luciferase activity by a luminometer. After addition of an ONPG reagent, β-galactosidase activity was measured by an ELISA reader. The measured luciferase value was corrected by the activity value of β-galactosidase. […] Accordingly, it was verified that the compounds of Chemical Formula I are antagonist compounds selective to LXR.

[2] = target: Nurr1 (Mus musculus, UniProt Q06219); assay: GAL-mNurr1 luciferase reporter transfection assay in CV-1 cells; format: cell-based; details: GAL-mNurr1, luciferase corrected by β-galactosidase, 24 hours
Nurr1, sequence (Q06219 360-598 limits assumed): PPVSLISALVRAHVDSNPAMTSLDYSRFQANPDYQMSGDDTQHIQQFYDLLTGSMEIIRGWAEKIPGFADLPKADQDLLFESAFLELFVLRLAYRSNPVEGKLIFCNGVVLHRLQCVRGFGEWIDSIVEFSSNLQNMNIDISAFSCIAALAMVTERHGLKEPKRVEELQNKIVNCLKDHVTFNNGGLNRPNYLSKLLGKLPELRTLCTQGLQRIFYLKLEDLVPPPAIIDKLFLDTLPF
Description: as §1, with “GAL-mNurr1,” for “GAL-hLXRa or GAL-hLXRB,”, “β-galactosidase” for “β-galactosidase,”, “concentrations.” for “concentrations (here, the final concentration of the LXR agonist, T0901517, was 500 nM).”, “were” for “are antagonist”, “Nurr1.” for “LXR.”

[3] = test system: BKS.Cg-+Lepr^db/+Lepr^db (db/db) mice; assay: Anti-diabetic efficacy in db/db mice (blood sugar, insulin, adiponectin, glucose and insulin tolerance); format: in vivo, mouse
Description: In the present example, in order to verify efficacy to prevent and treat diabetes of the compound of Chemical Formula I (CMDD-X or Compound 7) according to the present invention, BKS.Cg-+Lepr^db/+Lepr^db (db/db) mice as an insulin-independent diabetes animal model and general mice (C57BL/6J) fed with high-fat feedstuff were used. After the disease animal model was orally administered with CMDD-X, the diabetes-related index between the administered group and the control group was measured to verify the efficacy as an agent for preventing and treating diabetes. BKS.Cg-+Lepr^db/+Lepr^db (db/db) mice (male, 7-week old) as type 2 diabetes animal model were purchased and used. The experiment animals were adapted to a housing environment for 1 week while pellet type general diet (lab-chow) was supplied, and then divided into 2 groups of 18 mice each by randomized block design to have similar blood sugar and body weight. For general mice fed with high-fat feedstuff as another animal model, 6-week old C57BL/6J mice was purchased, and then were adapted to a lap environment for 2 weeks. After that, high-fat diet containing 35% fat diet (weight ratio, Research Diets. Co. Ltd.) was supplied for 14 weeks. The efficacy to prevent and treat diabetes by CMDD-X was observed through oral administration. A mouse fed with only 0.5% carboxylmethyl cellulose, as a medicine delivery, was used as a negative control group. The medicine was orally administered to the db/db mice for 4 weeks, a total of 28 days, and to the C57BL/6J mice, which was fed with the high-fat diet, for the last 6 weeks, at a dose of 10 mg/kg/day. The experiment animals after administration were fasted for 15 hours before autopsy, and then the blood taken from the orbital venous treated with heparin. […] The other organ tissues were rapidly cooled in the liquid nitrogen immediately after removal thereof, and kept at −70° C. and then analyzed. T-test was conducted with respect to the control group and the administered group, a significant difference of less than 5% (P<0.05) was determined as having have a statistical significance.
In order to measure the blood sugar reduction efficacy of the compound of Chemical Formula I (CMDD-X or Compound 7), the blood was collected through tail veins of the db/db mice before experiment ending, after feeding, and after stomach was empty for 15 hours, and the blood sugar was measured by using a glucose oxidase method. […]
The insulin and adiponectin concentrations of the plasma, obtained from the orbital venous of the db/db mice orally administered with CMDD-X (or Compound 7) for 4 weeks, were measured by using an Elisa Kit. […]

[4] = test system: Gyk, LXR, SREBP1c, SCD1, PPARa, UCP gene expression; assay: Gene expression analysis (micro-array, Q-RT PCR) in diabetic mice fed with compound; format: in vivo, mouse
Description: Gene expression analysis was conducted to establish the mechanism. The gene analysis was conducted by using micro-array and the Q-RT PCR method. […] Expressions of PPARa and UCP, which are genes for burning the newly generated fat to release heat, were increased (FIG. 13).

[5] = test system: db/db mice; assay: Renal failure as diabetes complication: blood urea nitrogen in db/db mice; format: in vivo, mouse; details: oral 10 mg/kg/day, 4 weeks
Description: In order to verify the efficacy to treat renal failure as a diabetes complication, a db/db disease animal model was used. 8-week old db/db mice were orally administered with the compound of Chemical Formula I (CMDD-X or Compound 7) at a dose of 10 mg/kg/day for 4 weeks, and then the blood urea nitrogen as a marker to treat renal failure was measured.

[6] = test system: C57BL/6 mice administered with MPTP; assay: MPTP-induced Parkinson's disease mice, Rotarod exercise capacity; format: in vivo, mouse; details: oral 5 mg/kg once per day for 5 days before MPTP 25 mg/kg; measured after 3 days
Description: In the present example, in order to verify efficacy to prevent and treat Parkinson's Disease of the compound of Chemical Formula I according to the present invention in the Parkinson's Disease as one of neurodegenerative diseases, mice administered with 1-methyl-4-phenyl-1,2,3,6-tetrahydropyridine (MPTP) were used. The efficacy to prevent and treat the Parkinson's Disease was verified by administering the compound of Chemical Formula I (CMDD-X or Compound 7) to a Parkinson's Disease-induced disease model and then measuring exercise capacity of the mice. C57BL/6 mice (male, 12-week old) were used. The mice were adapted to a housing environment for 1 week while pellet type general diet was supplied, and then divided into 3 groups of 5 mice each to have similar body weights. Before MPTP administration, the compound CMDD-X was orally administered at a concentration of 5 mg/kg. After 3 hours, probenecid as MPTP efflux inhibitor was intraperitoneally administered to the mice at a concentration of 250 mg/kg, and, after 2 hours, 25 mg/kg of MPTP was intraperitoneally administered. Administration was conducted once per one day for a total of 5 days, and, after 3 days, exercise capacity of the mice was measured by using the Rotarod. […]

Structure (SMILES) | pIC50 [1] | pEC50 [2] | insulin tolerance test: final blood sugar decreased as compared with the control group ([3]; insulin 3 unit/kg) [%] | blood sugar after food intake, lower than that of the control group ([3]; oral 10 mg/kg/day, 4 weeks) [%] | blood sugar at the time of an empty stomach, reduction ([3]; oral 10 mg/kg/day, 4 weeks, fasted 15 hours) [%] | blood insulin concentration, relative to that of the control group ([3]; oral 10 mg/kg/day, 4 weeks, plasma, Elisa Kit) [%] | expressions of LXR, SREBP1c, and SCD1 [4] | expression of Gyk (glycolysis biomarker), increase ([4]; micro-array and Q-RT PCR) [times] | efficacy on renal failure (blood urea nitrogen) [5] | exercise capacity (Rotarod) [6]
CC(C)=CCC/C(C)=C/[C@@H]1CC(C)=C[C@]2(C=C(COS(=O)(=O)c3ccc(C)cc3)[C@H]3CC(=O)C(C)=C[C@H]3O2)O1 [Compound 1] | 7.68 | 7.55 |  |  |  |  |  |  |  | 
CC(C)=CCC/C(C)=C/[C@@H]1CC(C)=C[C@]2(C=C(C=O)[C@H]3CC(=O)C(C)=C[C@H]3O2)O1 [Compound 4] | 8.30 | 8.15 |  |  |  |  |  |  |  | 
CC(C)=CCC/C(C)=C/[C@@H]1CC(C)=C[C@]2(C=C(CF)[C@H]3CC(=O)C(C)=C[C@H]3O2)O1 [Compound 7] | 7.96 | 7.49 | 58 | 27 | 28 | 73 | very increased | 1.3 | somewhat superior efficacy as compared with CMDD-X | the same results as CMDD-X
C#CCOCC1=C[C@]2(C=C(C)C[C@@H](/C=C(\C)CCC=C(C)C)O2)O[C@@H]2C=C(C)C(=O)C[C@H]12 [Compound 8] | 7.07 | 7.60 |  |  |  |  |  |  |  | 
